Laboratory results reported in PubChem BioAssay AID1996.
Converted amounts (≈) assume the structure as drawn.

Details: buffer; pH 7.4; 200.0 µM

| Structure (SMILES) | solubility kinetic [µg/mL] |
| --- | --- |
| COc1ccc(NC(=O)c2ccc([N+](=O)[O-])o2)cc1 | 23.4 (≈ 89.2 µM) |
| Cc1ccccc1CSCC(=O)Nc1ccccc1Br | 4.5 (≈ 12.8 µM) |
| Cc1ccc(C)c(Nc2c([N+](=O)[O-])ccc3nonc23)c1 | 0.2 (≈ 0.704 µM) |
| CCOc1ccccc1NC(=O)C1CCN(S(C)(=O)=O)CC1 | > 49 |
| O=C(CCc1ccccc1)NCC(=O)N/N=C/c1ccc(O)cc1O | > 51.2 |
| CCOc1ccccc1N=Cc1c(O)c2ccccc2oc1=O | < 0.7 |
| Oc1ccc(NCc2cccc(OCc3ccccc3)c2)cc1 | 38.1 (≈ 125 µM) |
| CCNCC(O)c1cccc(O)c1 (stereo not drawn) | 18.9 (≈ 104 µM) |
| CC(NC(=O)CCc1c[nH]c2ccccc12)c1ccccc1 (stereo not drawn) | > 43.9 |
| CCOC(=O)c1ccc(NC(=O)N2CCc3ccccc3C2)cc1 | 19.2 (≈ 59.2 µM) |
| Cc1cc(C)cc(NC(=O)c2cc(C)nc3ccccc23)c1 | < 0.3 |
| Cc1nc2ccccn2c1C(=O)NC1CCCC1 | > 36.5 |
| COc1cccc(C(=O)NCCNC(=O)c2ccccn2)c1 | > 44.9 |
| COc1ccc(C(=O)Nc2cc(C)nn2-c2ccc(C)cc2)cc1 | > 48.2 |
| O=[N+]([O-])c1cccnc1Oc1ccc(F)cc1 | 31.6 (≈ 135 µM) |
| Cc1[nH]c2ccccc2c1C(=O)CSC(=S)N1CCOCC1 | 2.4 (≈ 7.18 µM) |
| CC(NC(=O)c1cc2cc([N+](=O)[O-])ccc2oc1=O)C1CCCO1 (stereo not drawn) | 36.5 (≈ 110 µM) |
| O=C(NCc1ccco1)c1cccc(C(F)(F)F)c1 | > 40.4 |
| O=C(NC(=S)Nc1ccc2oc(=O)ccc2c1)c1ccco1 | 2.8 (≈ 8.91 µM) |
| Cc1ccnc(NC(=O)CNC(=O)c2ccco2)c1 | > 38.9 |
| O=S(=O)(NC1CCCCC1N1CCCCC1)c1ccccc1 (stereo not drawn) | > 48.4 |
| Cc1cc2oc(=O)cc(CN3CCCCC3C)c2cc1C (stereo not drawn) | 17.9 (≈ 62.7 µM) |
| O=c1c2ccccc2nc(/C=C/c2ccc(Br)cc2)n1CCO | 0.8 (≈ 2.15 µM) |
| Cc1ccc2c(COC(=O)C3CC(=O)N(c4ccc5c(c4)OCCO5)C3)cc(=O)oc2c1 (stereo not drawn) | 19.6 (≈ 45 µM) |
| Cc1cccc(N/C=C/C(=O)c2ccc(Cl)cc2)c1 | < 0.6 |

| Structure (SMILES) | solubility kinetic [µg/mL] |
| --- | --- |
| Cc1cc(C(=O)NCc2ccccc2F)c2ccccc2n1 | 9.3 (≈ 31.6 µM) |
| Cc1cc(SCc2cccc(C(F)(F)F)c2)nc(=O)[nH]1 | 26.9 (≈ 89.6 µM) |
| OC1CSc2nc3ccccc3n2C1 (stereo not drawn) | 26.6 (≈ 129 µM) |
| COc1ccc(OCC(O)CNC(=O)c2cccs2)cc1 (stereo not drawn) | 36.9 (≈ 120 µM) |
| Cc1cc2nc3c(nc2cc1C)CCCC3 | 24.2 (≈ 114 µM) |
| Cc1ccc(C)n1-c1ccc(C#N)cn1 | 26.6 (≈ 135 µM) |
| Cc1ccc(N2C(=O)C3CCCN3C2=S)cc1C (stereo not drawn) | > 39.1 |
| CC1(C)CC2CC(C)(CN2Cc2cccc([N+](=O)[O-])c2)C1 (stereo not drawn) | 5.2 (≈ 18 µM) |
| Cc1ccc(/C(=N/Nc2ncnc3ccccc23)C(=O)O)cc1 | > 45.9 |
| CSc1ccc(-c2nc(CN(C)C3CCOC3)c(C)o2)cc1 (stereo not drawn) | 47.1 (≈ 148 µM) |
| CC(C)[C@H](NC(N)=O)C(=O)NCCc1ccc(Cl)cc1Cl | 48.2 (≈ 145 µM) |
| Cc1ccc(C)c(CSCC(=O)NCc2cccs2)c1 | 41.8 (≈ 137 µM) |
| O=C(Nc1ccc([N+](=O)[O-])cc1)Nc1cnccn1 | 2.9 (≈ 11.2 µM) |
| COc1ccc(CN2CCc3c([nH]c4ccccc34)C2)c(OC)c1C | 35.2 (≈ 105 µM) |
| CC(NC(=O)C12CC3CC(CC(O)(C3)C1)C2)c1ccccc1 (stereo not drawn) | > 44.9 |
| Cc1ccc(NC(=O)CCN2C(=O)OC(C)(C)C2(C)O)cc1 (stereo not drawn) | 34 (≈ 111 µM) |
| CC(C)NC(=O)N(Cc1ccccc1)Cc1cccs1 | 41.8 (≈ 145 µM) |
| COc1cn(-c2ccccc2)nc1C(=O)NCc1ccccc1 | > 46.1 |
| O=C(COC(=O)c1ccc(Cl)nc1)Nc1ccc2c(c1)CCC2 | 5.3 (≈ 16 µM) |
| Cc1ccc(NC(=O)C(c2ccccc2)c2ccccc2)nc1 | 11.5 (≈ 38 µM) |
| Cc1c(C)c(C)c(CN2CCSCC2)c(C)c1C | < 0.6 |
| Cc1ccc2c(c1)N(C(C)C(=O)NCc1ccccn1)C(=O)CO2 (stereo not drawn) | > 48.8 |
| COC(=O)CSc1nc(NC(C)C)nc(N(C)C)n1 | 36.6 (≈ 128 µM) |
| Cc1cccc(NC(=O)c2cc(C)nc3ccccc23)c1 | 0.7 (≈ 2.53 µM) |
| CCN1CCN(C(=O)c2cc3cc(F)ccc3[nH]2)CC1 | 36.4 (≈ 132 µM) |

| Structure (SMILES) | solubility kinetic [µg/mL] |
| --- | --- |
| COc1ccc(OC)c(/C=N/NC(=O)C(O)c2ccccc2)c1 (stereo not drawn) | > 47.2 |
| O=c1[nH]c(=O)n(CC2CCCO2)c(O)c1/C=C1\C=Nc2ccccc21 (stereo not drawn) | > 50.9 |
| CSC1=NCCN1C(=O)Cc1ccc(-c2ccccc2)cc1 | 4.1 (≈ 13.2 µM) |
| CCOC(=O)C1CCN(S(=O)(=O)c2ccc(NC(C)=O)c(Cl)c2)CC1 | 7.3 (≈ 18.8 µM) |
| Cl.Clc1ccccc1CN1CCNCC1 | > 37.1 |
| CCN(CC)CCNC(=O)/C(=N\O)c1ccccn1 | > 39.6 |
| CN(C)C(=S)Nc1ccc(Br)cc1Cl | 23.4 (≈ 79.7 µM) |
| COCC(C)NC(=O)COc1nncc2ccccc12 (stereo not drawn) | > 41.3 |
| Cc1cccc(Cc2ncc(C(F)(F)F)cc2Cl)c1 | < 0.6 |
| CN(C)/C=C/C(=O)c1ccc2noc(-c3ccccc3)c2c1 | 15.1 (≈ 51.7 µM) |
| CC(CNC(=O)CCc1ccccc1)NC(=O)CCc1ccccc1 (stereo not drawn) | 19 (≈ 56.1 µM) |
| CC(C)Cn1c(N)c(C(=O)COC(=O)c2cc(S(=O)(=O)N3CCOCC3)ccc2Br)c(=O)n(C)c1=O | 7.9 (≈ 13.4 µM) |
| CSc1cccc(NC(=O)c2[nH]c(C)c(C(C)=O)c2C)c1 | 7.3 (≈ 24.1 µM) |
| O=C(c1cc([N+](=O)[O-])ccc1N1CCCC1)N1CCCC1 | > 43.4 |
| CC1CCC2(CC1)NC(=O)N(CC(=O)NCc1ccc(Cl)cc1)C2=O (stereo not drawn) | 6.3 (≈ 17.3 µM) |
| Cn1ccsc1=NC(=O)c1cccc(C#N)c1 | > 36.5 |
| Cc1ccc(S(=O)(=O)Nc2nc(C)c(C)s2)cc1 | 13.5 (≈ 47.8 µM) |
| O=C(NCc1ccccn1)Nc1ccccc1F | > 36.8 |
| O=C(NC1CC1)C1CC(=O)N(c2cccc(Cl)c2)C1 (stereo not drawn) | > 41.8 |
| CC(Sc1cccc[n+]1[O-])C(=O)NC1CCCCC1C (stereo not drawn) | > 44.2 |
| NCCCS(=O)(=O)O.O.[Na+] | 2.9 |
| C/C(=N\O)C(=O)Nc1ccccc1 | > 26.7 |
| Cc1ccc(S(=O)(=O)CC(=O)N2CCOCC2)cc1 | > 42.5 |
| Nc1nc(NCCO)nc(N2CCCCCC2)c1[N+](=O)[O-] | > 44.4 |
| CCCCn1c(N)c(N(C)C(=O)C2CCCC2)c(=O)[nH]c1=O | > 46.3 |

| Structure (SMILES) | solubility kinetic [µg/mL] |
| --- | --- |
| Cc1cc(NC(=O)c2cccnc2)ccc1Br | 40.2 (≈ 138 µM) |
| CC(=O)c1cn(Cc2ccc(F)cc2)c2ccccc12 | 1.9 (≈ 7.11 µM) |
| Cl.Nc1nc2ccccc2n1C(=O)c1cccs1 | 2 |
| C/C(=N/OC(=O)c1ccc(C)cc1)C(=O)c1ccc(Br)cc1 | 33.9 (≈ 94.1 µM) |
| CN1C(=O)/C(=C/c2ccc(OCc3cccc(F)c3)cc2)NC1=S | < 0.4 |
| CCCc1c(C)nn(-c2ncccc2[N+](=O)[O-])c1C | > 39 |
| COc1ccc(C(=O)O)cc1S(=O)(=O)NCc1ccncc1 | > 48.4 |
| COc1ccc(/C=N/OCC(=O)N2CCCC2)c(OC)c1 | > 43.9 |
| COc1ccc(C(=O)OCC(=O)N2CCCC2=O)c(OC)c1 | 40.3 (≈ 131 µM) |
| COc1ccc(-c2cnc3n2CCCCC3)cc1 | > 36.3 |
| O=C(NC1CCCCC1)c1cc(-c2ccc(O)cc2)on1 | < 0.3 |
| Cl.NCc1ccccc1 | > 21.5 |
| COc1cccc(/C=C/c2ccccn2)c1O | 34 (≈ 150 µM) |
| CC(=O)c1cccc(OCC(=O)N2CCCc3ccccc32)c1 | 44.6 (≈ 144 µM) |
| O=C(Nc1nc(-c2cccnc2)cs1)c1ccc([N+](=O)[O-])cc1 | 3.2 (≈ 9.81 µM) |
| CC1Cc2ccccc2N1CC(=O)NC(=O)NC1CCCCC1 (stereo not drawn) | 24.6 (≈ 78 µM) |
| CC(C)N1C(=O)CCC1C(=O)NCc1ccc(F)cc1Cl (stereo not drawn) | > 46.9 |
| COc1ccc(CNC(=S)NC(C)CCc2ccccc2)cc1 (stereo not drawn) | 14.8 (≈ 45.1 µM) |
| CC(Sc1cccc[n+]1[O-])C(=O)Nc1cc(Cl)c(Cl)cc1Cl (stereo not drawn) | 53.5 (≈ 142 µM) |
| O=C(NCCOc1ccccc1)c1ccccc1[N+](=O)[O-] | > 42.9 |
| O=C(CC(=O)Nc1ccccc1)Nc1ccccc1 | 8.4 (≈ 33 µM) |
| Cc1ccccc1C(=O)NCCNC(=O)c1ccco1 | > 40.8 |
| COC(=O)c1ccc(C(=O)OC)c(NC(=O)C(C)(C)C)c1 | 3.9 (≈ 13.3 µM) |
| CC(OC(=O)C1CC1)C(=O)Nc1cc(C(F)(F)F)ccc1Cl (stereo not drawn) | 32 (≈ 95.3 µM) |
| O=S(=O)(Nc1nc2ccccc2s1)c1ccc(Cl)nc1 | > 48.9 |

| Structure (SMILES) | solubility kinetic [µg/mL] |
| --- | --- |
| Cc1cc(C)c(C(=O)N2CCCC(Nc3ccc(F)cc3)C2)o1 (stereo not drawn) | > 47.5 |
| OC(CCNCCc1c[nH]c2ccccc12)C(F)(F)F (stereo not drawn) | 35.8 (≈ 125 µM) |
| COC(=O)c1ccc(CN2CCN(CC(C)C)C(CCO)C2)cc1 (stereo not drawn) | > 50.2 |
| S=C(NCC1CCCO1)NC12CC3CC(CC(C3)C1)C2 (stereo not drawn) | 4 (≈ 13.6 µM) |
| CCOC(=O)C1=C(C)NC2=C(C(=O)OC2)C1c1ccccc1 (stereo not drawn) | > 44.9 |
| C=CCc1c(Cl)nc(C)nc1NCc1ccccc1 | 5.8 (≈ 21.2 µM) |
| Nc1ccncc1Cl | 16.3 (≈ 127 µM) |
| CCc1cccc2c(C(=O)C(NC(C)CC)c3ccccc3)c[nH]c12 (stereo not drawn) | 42.8 (≈ 128 µM) |
| CCOc1cccc(C(=O)NC(=S)Nc2ccc3c(c2)OCCO3)c1 | 4 (≈ 11.2 µM) |
| Clc1ccc(Cl)c(OCCCCN2CCCCC2)c1 | 29.5 (≈ 97.6 µM) |
| CCOC(=O)C1(Cc2cccc(F)c2)CCN(CC(O)CO)CC1 (stereo not drawn) | 43.3 (≈ 128 µM) |
| Cc1ccc(-c2noc(N=O)c2NO)cc1 | 31.5 (≈ 144 µM) |
| Cn1c(=O)c2c(ncn2CC(=O)OCC(=O)Nc2cc(Cl)ccc2C#N)n(C)c1=O | 63.2 (≈ 147 µM) |
| CN(C)CCCNCCCNC(=O)/C(=N\O)c1ccccc1 | > 46 |
| Cc1cccc(Nc2nc(-c3ccc(F)c(C)c3)cs2)n1 | < 0.2 |
| CC(=O)Nc1ccc(NC(=O)C(C)OC(=O)CCSc2ccccc2Cl)cc1 (stereo not drawn) | 10.2 (≈ 24.2 µM) |
| Cc1nc(C)c(C(=O)OCC(=O)N(C)c2ccccc2)s1 | > 45.7 |
| NS(=O)(=O)c1ccc(CCNC(=O)c2ccc3c(=O)n4c(nc3c2)CCCCC4)cc1 | 8.2 (≈ 18.6 µM) |
| O=C(Nc1cccc([N+](=O)[O-])c1)N1CCN(c2ccccc2)CC1 | 3.6 (≈ 11 µM) |
| Cc1cc(C(=O)OCC(=O)NC(C)c2ccccc2)c(C)o1 (stereo not drawn) | 17.7 (≈ 58.7 µM) |
| O=C1CCC2=C(CCCC2=O)N1 | 24.2 (≈ 146 µM) |
| COc1ccc(-c2onc(C)c2-c2cscn2)c(O)c1 | > 43.2 |
| COC(=O)c1cccc(NC(=O)CCc2c(C)noc2C)c1 | > 45.3 |
